The results in this text go back to ChEMBL document CHEMBL3045680, “Synthesis and Herbicidal Activity of 4-Thiazolone Derivatives and Their Effect on Plant Secretory Pathway” (J Pestic Sci, 2003).

Active and inactive are the calls of the source. The rule behind the calls is not given here.

In one series the test system is Oryza sativa. In words: Post-emergence phytotoxicity against Oryza sativa (rice) plants exposed to compound applied on surface of water 7 days after transplantation assessed as plant killing at 0.5 kg ai/ha measured 3 weeks after compound treatment under green house conditions. It is filed as organism-based. The following applies: other, 504 h.
Series [1] has as its system Echinochloa oryzicola. In words: Post-emergence herbicidal activity against Echinochloa oryzicola assessed as weed killing at 0.5 kg ai/ha measured 30 days after compound treatment under green house conditions. It counts as functional.
Series [2] deals with Echinochloa oryzicola. In words: Pre-emergence herbicidal activity against Echinochloa oryzicola assessed as weed killing at 2 kg ai/ha measured 30 days after compound treatment under green house conditions. It is filed as functional.
The test system of series [3] is Echinochloa oryzicola. In words: Post-emergence herbicidal activity against Echinochloa oryzicola assessed as weed killing at 2 kg ai/ha measured 30 days after compound treatment under green house conditions. It counts as functional.
In series [4] the test system is Schoenoplectiella juncoides. In words: Post-emergence herbicidal activity against Schoenoplectiella juncoides assessed as weed killing at 2 kg ai/ha measured 30 days after compound treatment under green house conditions. It counts as functional.
Series [5] deals with Schoenoplectiella juncoides. In words: Pre-emergence herbicidal activity against Schoenoplectiella juncoides assessed as weed killing at 2 kg ai/ha measured 30 days after compound treatment under green house conditions. It counts as functional.
Series [6] deals with Echinochloa oryzicola. As to the kind of experiment: Inhibition of shoot growth of Echinochloa oryzicola seedlings exposed to 10 uM compound 3 days after sowing measured after 24 to 72 hr days post compound treatment. It is filed as functional, organism-based.
The subject of series [7] is Echinochloa oryzicola. In words: Induction of plant secretory pathway perturbations in Echinochloa oryzicola seedlings exposed to 10 uM compound 3 days after sowing assessed as induction of accumulation of dense vesicles around root tip golgi apparatus measured after 4 hr days post compound treatment by electron microscopy. It is filed as functional, organism-based.
The test system of series [8] is Echinochloa oryzicola. As to the kind of experiment: Induction of plant secretory pathway perturbations in Echinochloa oryzicola seedlings exposed to 10 uM compound 3 days after sowing assessed as induction of cytological changes in root apical tip area measured after 4 to 8 hr days post compound treatment by electron microscopy. It is filed as functional, organism-based.

For series [9], the system named is Echinochloa oryzicola. In words: Induction of plant secretory pathway perturbations in Echinochloa oryzicola seedlings root tips area exposed to 10 uM compound 3 days after sowing assessed as induction of endoplasmic reticulum swellings measured after 4 hr days post compound treatment by electron microscopy. It is filed as functional, organism-based.
Series [10] has as its system Echinochloa oryzicola. As to the kind of experiment: Induction of necrotic symptoms in root tip of Echinochloa oryzicola seedlings exposed to 10 uM compound measured after 24 to 72 hr days post compound treatment. It counts as functional, organism-based.
Series [11] deals with Echinochloa oryzicola. As to the kind of experiment: Induction of plant secretory pathway perturbations in Echinochloa oryzicola seedlings root tips area exposed to 10 uM compound 3 days after sowing assessed as induction of obscuring of cell wall measured after 4 hr days post compound treatment by electron microscopy. It is filed as functional, organism-based.
The subject of series [12] is Echinochloa oryzicola. In words: Induction of plant secretory pathway perturbations in Echinochloa oryzicola seedlings root tips area exposed to 10 uM compound 3 days after sowing assessed as induction of vesicles accumulation at plasma membrane-cell wall interface measured after 8 hr days post compound treatment by electron microscopy. It is filed as functional, organism-based.

The subject of series [13] is Echinochloa oryzicola. In words: Inhibition of root growth of Echinochloa oryzicola seedlings exposed to 10 uM compound 3 days after sowing measured after 24 to 72 hr days post compound treatment. It is filed as functional, organism-based.
In series [14] the test system is Echinochloa oryzicola. As to the kind of experiment: Induction of plant secretory pathway perturbations in Echinochloa oryzicola seedlings root tips area exposed to 10 uM compound 3 days after sowing assessed as induction of vesicles accumulation at plasma membrane-cell wall interface measured after 4 hr days post compound treatment by electron microscopy. It is filed as functional, organism-based.

Series [15] has as its system Echinochloa oryzicola. As to the kind of experiment: Inhibition of shoot growth of Echinochloa oryzicola seedlings exposed to 10 uM compound immediately after sowing measured after 2 days post compound treatment. It is filed as functional, organism-based.
The test system of a further series is Lindernia procumbens. In words: Herbicidal activity against Lindernia procumbens assessed as compound application rate causing complete weed control measured 30 days after compound treatment under green house conditions. It counts as functional.
In series [16] the test system is Echinochloa oryzicola. As to the kind of experiment: Herbicidal activity against Echinochloa oryzicola assessed as compound application rate causing complete weed control measured 30 days after compound treatment under green house conditions. It counts as functional.
The subject of a further series is Pontederia vaginalis. In words: Herbicidal activity against Monochoria vaginalis assessed as compound application rate causing complete weed control measured 30 days after compound treatment under green house conditions. It is filed as functional.
Series [17] relates to Echinochloa oryzicola. As to the kind of experiment: Induction of plant secretory pathway perturbations in Echinochloa oryzicola seedlings exposed to 10 uM compound 3 days after sowing assessed as induction of morphological changes in root tip golgi apparatus measured after 4 hr days post compound treatment by electron microscopy. It is filed as functional, organism-based.

Series [18] deals with Echinochloa oryzicola. In words: Induction of plant secretory pathway perturbations in Echinochloa oryzicola seedlings root tips area exposed to 10 uM compound 3 days after sowing assessed as induction of curved cell wall membrane-cell wall interface measured after 4 hr days post compound treatment by electron microscopy. It counts as functional, organism-based.
Series [19] has as its system Echinochloa oryzicola. In words: Inhibition of root growth of Echinochloa oryzicola seedlings exposed to 10 uM compound immediately after sowing measured after 3 days post compound treatment. It counts as functional, organism-based.
Series [20] has as its system Schoenoplectiella juncoides. As to the kind of experiment: Herbicidal activity against Schoenoplectiella juncoides assessed as compound application rate causing complete weed control measured 30 days after compound treatment under green house conditions. It counts as functional.
Series [21] concerns Echinochloa oryzicola. In words: Induction of plant secretory pathway perturbations in Echinochloa oryzicola seedlings root tips area exposed to 10 uM compound 3 days after sowing assessed as induction of curved cell wall membrane-cell wall interface measured after 8 hr days post compound treatment by electron microscopy. It is filed as functional, organism-based.
The next series relates to Rotala indica. In words: Herbicidal activity against Rotala indica assessed as compound application rate causing complete weed control measured 30 days after compound treatment under green house conditions. It counts as functional.
The test system of another series is Cyperus serotinus. As to the kind of experiment: Herbicidal activity against Cyperus serotinus assessed as compound application rate causing complete weed control measured 30 days after compound treatment under green house conditions. It counts as functional.
Series [22] concerns Echinochloa oryzicola. As to the kind of experiment: Induction of plant secretory pathway perturbations in Echinochloa oryzicola seedlings root tips area exposed to 10 uM compound 3 days after sowing assessed as induction of low electron dense area at membrane-cell wall interface measured after 4 hr days post compound treatment by electron microscopy. It is filed as functional, organism-based.

On to `CCN(CC)C(=O)n1cnc(S(=O)(=O)c2c(C)cc(C)cc2C)n1` [CAFENSTROLE], for which the Activity is recorded as 20% in the series with Oryza sativa and 80% with Echinochloa oryzicola [1].
With `CCCC1(C)SC(N(C)c2ccccc2)=NC1=O` (stereo not given), the Activity with Echinochloa oryzicola [2] was found to be 80%; in the series with Echinochloa oryzicola [3] it was 70%; in series [4] it was 20%; in series [5] it was 80%.
Turning to `CN(Cc1ccccc1)C1=NC(=O)C(C)(C)S1`, the Activity in the series on Echinochloa oryzicola [2] amounted to 20%; in the series with Echinochloa oryzicola [3] it was 0%; in series [4], 0%; in [5], 40%.
As to `CN(C1=NC(=O)CS1)c1ccccc1`, the Activity (in the series on Echinochloa oryzicola [2]; with Echinochloa oryzicola [3]; in series [4]; in [5]) was 0% each time.
With `CC1CCc2ccccc2N1C1=NC(=O)C(C)(C)S1` (stereo not given), the Activity is given as 90% in the series with Echinochloa oryzicola [2], 90% in the series on Echinochloa oryzicola [3], 80% in series [4] and 90% in series [5].
For `CC1(C)SC(Nc2ccccc2)=NC1=O`, the Activity with Echinochloa oryzicola [2] came to 80%; in the series on Echinochloa oryzicola [3], 60%; in [4], 60%; in series [5], 80%.
Regarding `CCCCN(C)C1=NC(=O)C(C)(C)S1`, the Activity (in the series with Echinochloa oryzicola [2]; with Echinochloa oryzicola [3]; in series [4]; in series [5]) was 0% each time.
As to `CC1SC(N(C)c2ccccc2)=NC1=O` (stereo not given), the Activity (in the series on Echinochloa oryzicola [2]; with Echinochloa oryzicola [3]; in [4]; in series [5]) was 20% in each case.
As to `CCC1(CC)SC(N2c3ccccc3OCC2C)=NC1=O` (stereo not given), the Activity in the series with Echinochloa oryzicola [3] was 100%; with Oryza sativa, 0%; in the series on Echinochloa oryzicola [1], 70%.
In the same order, the values of `CCC1(CCl)SC(N2c3ccccc3OCC2C)=NC1=O` (stereo not given) are 100%, 20% and 50%.
Take `CC1(C)SC(N2CCCc3ccccc32)=NC1=O`: the Activity is 90% in the series with Echinochloa oryzicola [2], 90% in the series with Echinochloa oryzicola [3], 60% in series [4] and 90% in series [5].
Consider `CN(C1=NC(=O)C(C)(CCCl)S1)c1ccccc1` (stereo not given), for which the Activity in the series with Echinochloa oryzicola [2] stood at 80%; with Echinochloa oryzicola [3] it was 100%; in [4], 80%; in series [5] it was 90%.
Consider `CCC1(C)SC(N(C)c2ccccc2)=NC1=O` (stereo not given), for which the Activity with Echinochloa oryzicola [2] stood at 80%; with Echinochloa oryzicola [3], 80%; in series [4] it was 40%; in [5], 90%.
Turning to `CC1(C)SC(N2CCOc3ccccc32)=NC1=O`, the Activity in the series on Echinochloa oryzicola [2] turned out to be 90%; in the series with Echinochloa oryzicola [3] it was 90%; in [4] it was 40%; in series [5], 80%.
`CCC1(CCCl)SC(N2c3ccccc3OCC2C)=NC1=O` (stereo not given): the Activity with Echinochloa oryzicola [3] is on record as 100%; in the series on Oryza sativa, 0%; in the series with Echinochloa oryzicola [1] it was 60%.
Regarding `CC1COc2ccccc2N1C1=NC(=O)C(C)(C)S1` (stereo not given), the Activity with Echinochloa oryzicola [2] worked out at 100%; in the series with Echinochloa oryzicola [3], 100%; in the series with Oryza sativa, 20%; in the series on Echinochloa oryzicola [1], 60%; in series [4], 80%; in series [5] it was 100%.
As for `CC1COc2ccccc2N1C1=NC(=O)C(C)(CCCl)S1` (stereo not given), in the series with Echinochloa oryzicola [6], the “growth inhibition (GI)” value was “inactive”. Further, the outcome with Echinochloa oryzicola [7], in the series with Echinochloa oryzicola [8], in the series on Echinochloa oryzicola [9], in the series with Echinochloa oryzicola [10], in the series on Echinochloa oryzicola [11] and with Echinochloa oryzicola [12] was Active. For the same molecule, the outcome with Echinochloa oryzicola [14], with Echinochloa oryzicola [17], with Echinochloa oryzicola [18], in the series with Echinochloa oryzicola [21] and in the series on Echinochloa oryzicola [22] was Active. The Activity with Echinochloa oryzicola [3] was 80%; in the series on Lindernia procumbens, 0.25 KgAi/ha; with Echinochloa oryzicola [16] it was 0.25 KgAi/ha; in the series with Pontederia vaginalis it was 0.25 KgAi/ha; in series [20], 0.25 KgAi/ha; in the series with Oryza sativa, 0%. Further, the Activity worked out at 0.25 KgAi/ha in the series on Rotala indica, 70% with Echinochloa oryzicola [1] and 0.25 KgAi/ha in the series on Cyperus serotinus. The “growth inhibition (GI)” value with Echinochloa oryzicola [13], with Echinochloa oryzicola [15] and with Echinochloa oryzicola [19] was “Active” each time.
`CCC1(C)SC(N2c3ccccc3OCC2C)=NC1=O` (stereo not given): the figures for the Activity in the series on Echinochloa oryzicola [3], in the series on Oryza sativa and in the series with Echinochloa oryzicola [1] were 100%, 0% and 60%, respectively.
`CN(C1=NC(=O)C(C)(C)S1)c1ccccc1`: the Activity with Echinochloa oryzicola [2] came out at 90%; in the series on Echinochloa oryzicola [3], 80%; in series [4], 60%; in series [5], 80%.
Consider `CCN(C1=NC(=O)C(C)(C)S1)c1ccccc1`, for which the Activity was found to be 80% in the series on Echinochloa oryzicola [2], 60% in the series on Echinochloa oryzicola [3], 20% in series [4] and 80% in series [5].
`CC1(C)SC(N2CCc3ccccc32)=NC1=O`: the Activity with Echinochloa oryzicola [2] is recorded as 80%; with Echinochloa oryzicola [3] it was 80%; in series [4] it was 20%; in series [5] it was 80%.
